# In paper PMC9423655, “Huntington’s disease phenotypes are improved via mTORC1 modulation by small molecule therapy” (PLoS ONE, 2022):
# Key:
# Npr13KO HEK293T cells = experiment: mTORC1 activation (p70S6K1) in HEK293T cells null for GATOR1 component Nprl3; format: cell-based; settings: leucine-starved 50 minutes, treatment 10 minutes
# Protocol: All cell lines were cultured in DMEM (Corning, #MT10013CV) supplemented with 10% heat-inactivated FBS (Gibco, #16140–071). All cell lines were maintained at 37°C and 5% CO2. For amino acid starvation, cells were rinsed once with and incubated Amino acid-free RPMI (US Biologicals, #R8999-04A) supplemented with 10% dialyzed FBS (Gibco, #26400044) for 50 min followed by treatment with NV-5297, leucine, or vehicle for 10 minutes. For leucine starvation, cells were rinsed once with and incubated in leucine-free DMEM (AthenaES, #0420) supplemented with 10% dialyzed FBS (Gibco, #26400044) for 50 minuted followed by treatment with NV-5297, leucine, or vehicle for 10 minutes.
# To ascertain if Sestrins and the GATOR pathway are required for NV-5297 activity, we tested mTORC1 activation in cells null for either all three Sestrin isoforms [SesnTKO] or for the GATOR1 component Npr13 [Npr13KO] [44]. […]
# (A) Activation of the mTORC1 pathway by NV-5297. […] Representative immunoblots of ^T389pS6K1 and quantification of the normalized level of ^T389pS6K1 from 8 independent experiments (F) show TORC1 activity in unedited HEK-293T cells, HEK-293T cells deficient for Sestrin 1 (Sesn1), 2 (Sesn2) and 3 (Sesn3) (D) or HEK-293T cells deficient for the GATOR1 component Nprl3 (E) after 50 minutes leucine starvation followed by the addition of vehicle, NV-5297 or leucine for 10 minutes. […]
# [1] = biological target: T1, Sestrin2/GATOR2 interaction (Homo sapiens, UniProt P58004); experiment: Lysate-based (cell-free) Sestrin2/GATOR2 protein-protein interaction assay; format: binding; settings: added to immunoprecipitated Sestrin2/GATOR2 complexes from amino acid-starved flag-WDR24 HEK293T cells, 10 minutes
# T1 construct: endogenous in cells; host or cells: Flag-WDR24 293T (HEK293T) cells
# T1 sequence (P58004 1-480): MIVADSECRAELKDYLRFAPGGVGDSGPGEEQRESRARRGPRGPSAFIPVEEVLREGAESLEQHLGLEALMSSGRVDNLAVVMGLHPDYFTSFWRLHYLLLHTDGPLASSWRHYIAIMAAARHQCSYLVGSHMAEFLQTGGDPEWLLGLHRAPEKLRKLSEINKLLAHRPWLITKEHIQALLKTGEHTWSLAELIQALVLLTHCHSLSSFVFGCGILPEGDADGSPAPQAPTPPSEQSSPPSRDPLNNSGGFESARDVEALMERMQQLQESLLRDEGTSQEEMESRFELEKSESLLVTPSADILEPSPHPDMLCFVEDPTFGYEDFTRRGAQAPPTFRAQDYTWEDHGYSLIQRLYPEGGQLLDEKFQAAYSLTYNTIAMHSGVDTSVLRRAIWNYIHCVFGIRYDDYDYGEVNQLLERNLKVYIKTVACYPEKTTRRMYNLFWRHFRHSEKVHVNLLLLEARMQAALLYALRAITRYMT
# Protocol: Flag-WDR24 293T cells were washed and placed in amino acid-free RPMI for 50 minutes. Cells were then rinsed once with ice-cold PBS and immediately lysed with Triton lysis buffer. The cell lysates were cleared by centrifugation at 13,200 rpm at 4°C in a microcentrifuge for 10 minutes. The anti-FLAG immunoprecipitations were performed as described above. Immunoprecipitated proteins (IPs) were resuspended in cytosolic buffer (40 mM HEPES pH 7.4, 140 mM KCl, 10 mM NaCl, 2.5 mM MgCl2, 0.1% TritonX-100) containing vehicle, NV-5297 or leucine at the indicated doses for 10 minutes. After compound incubation, IPs were collected by centrifugation, denatured, resolved by SDS-PAGE, and analyzed by immunoblotting.
# Next, Sestrin2/GATOR2 protein-protein interactions in response to NV-5297 were measured using cell-free assays and in vitro. For this, HEK293T cells stably expressing flag-WDR24, a component of GATOR2 [44], were used. The cell-free assays utilized Sestrin2/GATOR2 complexes immunoprecipitated from amino acid-starved cells with an anti-flag antibody.
# mTORC1 pathway (pS6) = experiment: pS6 immunoblot of striatum and heart after one week of oral dosing in N171-82Q HD mice; format: in vivo; settings: N171-82Q mice, oral 160 mg/kg daily for one week
# Protocol: The initial trial consisted in one week of oral dosing in 12 weeks old N171-82Q males. The chronic 6 weeks treatment (Veh n = 15, NV-5297 n = 14) took place from 6 to 12 weeks of age. The cardiac stress took place in animals from 10 to 12 weeks of age (Veh-Sal n = 9, NV-Sal n = 10, Veh-Iso n = 16, NV-Iso n = 11).
# Specific regions of the brain and heart were homogenized using a Next Advance Bullet Blender Storm in Lysis Buffer (Cell lysis buffer: 1% Triton X-100, 50 mM HEPES pH 7.4, 100 mM sodium chloride, 2 mM EDTA, 10 mM Beta-glycerophosphate, 10 mM Sodium pyrophosphate, and 1 protease inhibitor) at 4°C. Lysates were cleared by centrifugation at 13,200 rpm at 4°C for 10 minutes. Equal amounts of total protein from each sample were denatured and, resolved by SDS-PAGE. Membranes were imaged using the LI-COR imaging system. Proteins levels are normalized to tubulin, actin or GAPDH levels and further normalized to vehicle treated mice for each tissue.
# Supplementary file pone.0273710.s002.tiff: S2 Fig Activation of the mTORC1 pathway in mice striatum and heart after oral dosing with NV-5297. (A) Representative immunoblot for the phosphorylated (^S240/244pS6), S6 and actin or tubulin in the striatum and heart of N171-82Q wild-type (WT) mice or N171-82Q HD mice respectively collected 1 hour after the last dose of a week of oral dosing with vehicle (Veh) or NV-5297 (160 mg/kg; A). Quantification of levels of ^S240/244pS6 in the striatum (B) and the heart (C) normalized to loading control levels and further normalized to untreated WT mice. Data are presented as mean ± SEM. **P ≤ 0.01, ***P ≤ 0.001 and ****P ≤ 0.0001 (Kruskal-Wallis test with Dunn’s multiple comparison tests). (TIFF) Click here for additional data file.
compound,measurement,setting,value
"CC(C)(C[C@H](N)C(=O)O)C(F)(F)F [NV-5297, (S)-2-amino-5,5,5-trifluoro-4,4-dimethylpentanoic acid]",p70S6K1 levels,Npr13KO HEK293T cells,remained unchanged
same,Sestrin2/GATOR2 interaction (GATOR2-associated Sestrin2),[1],disrupted the Sestrin2/GATOR2 interaction in a dose-dependent manner
same,pS6 in heart relative to vehicle,mTORC1 pathway (pS6),increased
same,pS6 in striata relative to vehicle,mTORC1 pathway (pS6),increased
same,ratio of pS6 level in striatum and heart compared with age-matched WT mice,mTORC1 pathway (pS6),normalized
